Laboratory results as given in PubChem BioAssay AID330 (DTP/NCI, 2004).
“And” between values parts separate entries of the source, which are not always exact repeats. Identical values can stand only once. Inconclusive results and toxic doses are left out. Rule for the calls: active = survival T/C of 150% or more; inactive = T/C below 125% in these data.

Tested on: P388 leukemia ip, CD2F1 mice, survival T/C
Assay: NCI In Vivo Anticancer Drug Screen. Data for tumor model P388 Leukemia (intraperitoneal) in CD2F1 (CDF1) mice
Details: endpoint: median survival time, higher = longer survival
Summary of the method: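 Mice carrying the transplanted tumor received test compound or vehicle. Survival was recorded in each group, and the value is the treated-group measurement divided by that of the vehicle-treated control group.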

[1] = dose: 25.0 mg/kg/injection, schedule: Q01DX009 (ip), vehicle: saline with Tween-80
[2] = dose: 50.0 mg/kg/injection, schedule: Q01DX009 (ip), vehicle: saline with Tween-80
[3] = dose: 100.0 mg/kg/injection, schedule: Q01DX009 (ip), vehicle: saline with Tween-80
[4] = dose: 200.0 mg/kg/injection, schedule: Q01DX009 (ip), vehicle: Klucel (hydroxypropylcellulose) (HPC)
[5] = dose: 200.0 mg/kg/injection, schedule: Q01DX009 (ip), vehicle: saline with Tween-80

Measured: T/C

CC1(CO)C(O)CCC2(C)C1CCC1CC3CC12CCC3(O)CO (stereo not given)
inactive: dose: 0.78 mg/kg/injection, schedule: Q03HX024 (ip), vehicle: Klucel (hydroxypropylcellulose) (HPC) 106 % of control | dose: 0.78 mg/kg/injection, schedule: Q03HX024 (oral), vehicle: Klucel (hydroxypropylcellulose) (HPC) 100 % of control | dose: 1.56 mg/kg/injection, schedule: Q03HX024 (ip), vehicle: Klucel (hydroxypropylcellulose) (HPC) 93 % of control | dose: 1.56 mg/kg/injection, schedule: Q03HX024 (oral), vehicle: Klucel (hydroxypropylcellulose) (HPC) 99 % of control | dose: 3.12 mg/kg/injection, schedule: Q03HX024 (ip), vehicle: Klucel (hydroxypropylcellulose) (HPC) 100 % of control | dose: 3.12 mg/kg/injection, schedule: Q03HX024 (oral), vehicle: Klucel (hydroxypropylcellulose) (HPC) 102 % of control | dose: 6.25 mg/kg/injection, schedule: Q03HX024 (ip), vehicle: Klucel (hydroxypropylcellulose) (HPC) 102 % of control | dose: 6.25 mg/kg/injection, schedule: Q03HX024 (oral), vehicle: Klucel (hydroxypropylcellulose) (HPC) 98 % of control | dose: 12.5 mg/kg/injection, schedule: Q01DX009 (ip), vehicle: Klucel (hydroxypropylcellulose) (HPC) 109 % of control and 113 % of control | dose: 12.5 mg/kg/injection, schedule: Q03HX024 (ip), vehicle: Klucel (hydroxypropylcellulose) (HPC) 106 % of control | dose: 12.5 mg/kg/injection, schedule: Q03HX024 (oral), vehicle: Klucel (hydroxypropylcellulose) (HPC) 100 % of control | dose: 25.0 mg/kg/injection, schedule: Q01DX009 (ip), vehicle: Klucel (hydroxypropylcellulose) (HPC) 114 % of control and 91 % of control | [1] 112 % of control | dose: 25.0 mg/kg/injection, schedule: Q03HX024 (ip), vehicle: Klucel (hydroxypropylcellulose) (HPC) 119 % of control | dose: 25.0 mg/kg/injection, schedule: Q03HX024 (oral), vehicle: Klucel (hydroxypropylcellulose) (HPC) 100 % of control | dose: 25.0 mg/kg/injection, schedule: Q04DX003 (ip), vehicle: Klucel (hydroxypropylcellulose) (HPC) 100 % of control | dose: 30.0 mg/kg/injection, schedule: Q01DX005 (iv), vehicle: saline with Tween-80 109 % of control | [2] 115 % of control | dose: 50.0 mg/kg/injection, schedule: Q03HX024 (ip), vehicle: Klucel (hydroxypropylcellulose) (HPC) 120 % of control | dose: 50.0 mg/kg/injection, schedule: Q03HX024 (oral), vehicle: Klucel (hydroxypropylcellulose) (HPC) 101 % of control | dose: 50.0 mg/kg/injection, schedule: Q04DX002 (ip), vehicle: Klucel (hydroxypropylcellulose) (HPC) 97 % of control | dose: 50.0 mg/kg/injection, schedule: Q04DX003 (ip), vehicle: Klucel (hydroxypropylcellulose) (HPC) 103 % of control | dose: 60.0 mg/kg/injection, schedule: Q01DX005 (iv), vehicle: saline with Tween-80 107 % of control | dose: 60.0 mg/kg/injection, schedule: Q01DX005 (oral), vehicle: saline with Tween-80 107 % of control | dose: 75.0 mg/kg/injection, schedule: Q04DX002 (ip), vehicle: Klucel (hydroxypropylcellulose) (HPC) 105 % of control | [3] 121 % of control | dose: 100.0 mg/kg/injection, schedule: Q03HX024 (oral), vehicle: Klucel (hydroxypropylcellulose) (HPC) 111 % of control | dose: 100.0 mg/kg/injection, schedule: Q04DX002 (ip), vehicle: Klucel (hydroxypropylcellulose) (HPC) 100 % of control | dose: 100.0 mg/kg/injection, schedule: Q04DX003 (ip), vehicle: Klucel (hydroxypropylcellulose) (HPC) 114 % of control | dose: 120.0 mg/kg/injection, schedule: Q01DX005 (iv), vehicle: saline with Tween-80 100 % of control | dose: 120.0 mg/kg/injection, schedule: Q01DX005 (oral), vehicle: saline with Tween-80 103 % of control | dose: 150.0 mg/kg/injection, schedule: Q04DX002 (ip), vehicle: Klucel (hydroxypropylcellulose) (HPC) 111 % of control | [4] 92 % of control and 96 % of control | [5] 105 % of control | dose: 200.0 mg/kg/injection, schedule: Q01DX009 (oral), vehicle: saline with Tween-80 100 % of control | dose: 200.0 mg/kg/injection, schedule: Q04DX002 (ip), vehicle: Klucel (hydroxypropylcellulose) (HPC) 105 % of control | dose: 200.0 mg/kg/injection, schedule: Q04DX003 (ip), vehicle: Klucel (hydroxypropylcellulose) (HPC) 119 % of control | dose: 240.0 mg/kg/injection, schedule: Q01DX005 (ip), vehicle: saline with Tween-80 109 % of control | dose: 240.0 mg/kg/injection, schedule: Q01DX005 (iv), vehicle: saline with Tween-80 106 % of control | dose: 240.0 mg/kg/injection, schedule: Q01DX005 (oral), vehicle: saline with Tween-80 102 % of control | dose: 300.0 mg/kg/injection, schedule: Q04DX002 (ip), vehicle: Klucel (hydroxypropylcellulose) (HPC) 115 % of control | dose: 400.0 mg/kg/injection, schedule: Q01DX009 (oral), vehicle: saline with Tween-80 103 % of control | dose: 400.0 mg/kg/injection, schedule: Q04DX002 (ip), vehicle: Klucel (hydroxypropylcellulose) (HPC) 117 % of control | dose: 480.0 mg/kg/injection, schedule: Q01DX005 (oral), vehicle: saline with Tween-80 107 % of control | dose: 600.0 mg/kg/injection, schedule: Q04DX002 (ip), vehicle: Klucel (hydroxypropylcellulose) (HPC) 117 % of control | dose: 800.0 mg/kg/injection, schedule: Q01DX009 (oral), vehicle: saline with Tween-80 103 % of control | dose: 800.0 mg/kg/injection, schedule: Q04DX002 (ip), vehicle: Klucel (hydroxypropylcellulose) (HPC) 108 % of control | dose: 800.0 mg/kg/injection, schedule: Q04DX003 (ip), vehicle: Klucel (hydroxypropylcellulose) (HPC) 102 % of control | dose: 1200.0 mg/kg/injection, schedule: Q04DX002 (ip), vehicle: Klucel (hydroxypropylcellulose) (HPC) 118 % of control | dose: 1600.0 mg/kg/injection, schedule: Q01DX009 (oral), vehicle: saline with Tween-80 88 % of control

COc1ccc([N+]2=Cc3cc(OC)c(OC)cc3CC2)cc1OC
inactive: dose: 6.25 mg/kg/injection, schedule: Q01DX009 (ip), vehicle: water 115 % of control | dose: 12.5 mg/kg/injection, schedule: Q01DX009 (ip), vehicle: water 108 % of control | dose: 25.0 mg/kg/injection, schedule: Q01DX009 (ip), vehicle: water 108 % of control | dose: 50.0 mg/kg/injection, schedule: Q01DX009 (ip), vehicle: water 103 % of control and 108 % of control | dose: 100.0 mg/kg/injection, schedule: Q01DX009 (ip), vehicle: water 104 % of control and 88 % of control

C=C1CCC2C(OC(=O)C2(O)CO)C2C(=C)C(O)CC12 (stereo not given)
inactive: dose: 9.38 mg/kg/injection, schedule: Q01DX005 (ip), vehicle: Klucel (hydroxypropylcellulose) (HPC) 103 % of control | dose: 18.75 mg/kg/injection, schedule: Q01DX005 (ip), vehicle: Klucel (hydroxypropylcellulose) (HPC) 105 % of control | dose: 37.5 mg/kg/injection, schedule: Q01DX005 (ip), vehicle: Klucel (hydroxypropylcellulose) (HPC) 100 % of control | dose: 75.0 mg/kg/injection, schedule: Q01DX005 (ip), vehicle: Klucel (hydroxypropylcellulose) (HPC) 104 % of control | dose: 150.0 mg/kg/injection, schedule: Q01DX005 (ip), vehicle: Klucel (hydroxypropylcellulose) (HPC) 113 % of control

CN(C)C1=CC(=S)NC2CCCCC12 (stereo not given)
inactive: dose: 50.0 mg/kg/injection, schedule: Q01DX005 (ip), vehicle: Klucel (hydroxypropylcellulose) (HPC) 99 % of control | dose: 100.0 mg/kg/injection, schedule: Q01DX005 (ip), vehicle: Klucel (hydroxypropylcellulose) (HPC) 95 % of control | dose: 200.0 mg/kg/injection, schedule: Q01DX005 (ip), vehicle: Klucel (hydroxypropylcellulose) (HPC) 102 % of control

CCCCOP(O)(=S)OCCCC.[Ti]
inactive: dose: 100.0 mg/kg/injection, schedule: Q01DX009 (ip), vehicle: Klucel (hydroxypropylcellulose) (HPC) 96 % of control | [4] 96 % of control | dose: 400.0 mg/kg/injection, schedule: Q01DX009 (ip), vehicle: Klucel (hydroxypropylcellulose) (HPC) 95 % of control

NC(=O)C1CCN(Cc2c[nH]c3ccccc23)CC1
inactive: [1] 104 % of control | [2] 100 % of control | [3] 104 % of control | [5] 102 % of control
